Data published in ChEMBL document CHEMBL3297653, “2-Amino-7-substituted benzoxazole analogs as potent RSK2 inhibitors” (Bioorg Med Chem Lett, 2014).

Tests used:
MDA-MB-231 = test: Cytotoxicity against human MDA-MB-231 cells assessed as growth inhibition after 5 days by CellTitre-glo assay; format: functional, cell-based; details: MDA-MB-231, 120 h
[1] = biological target: Tyrosine-protein kinase JAK2 (Homo sapiens, UniProt O60674); test: Inhibition of JAK2 (unknown origin)
Aurora kinase A = biological target: T1, Aurora kinase A (Homo sapiens, UniProt O14965); test: Inhibition of aurora A (unknown origin)
T1 sequence (O14965 whole entry): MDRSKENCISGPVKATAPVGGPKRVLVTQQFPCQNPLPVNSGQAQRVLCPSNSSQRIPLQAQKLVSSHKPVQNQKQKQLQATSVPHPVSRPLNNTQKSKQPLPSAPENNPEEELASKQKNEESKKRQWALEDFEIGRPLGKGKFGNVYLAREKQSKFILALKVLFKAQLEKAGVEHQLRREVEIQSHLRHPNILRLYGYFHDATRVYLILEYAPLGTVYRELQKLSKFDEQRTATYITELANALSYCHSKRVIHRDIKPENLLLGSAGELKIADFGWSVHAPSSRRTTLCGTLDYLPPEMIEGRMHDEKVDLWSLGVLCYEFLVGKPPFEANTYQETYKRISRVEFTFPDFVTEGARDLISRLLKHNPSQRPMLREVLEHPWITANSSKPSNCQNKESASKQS

Sequence of Tyrosine-protein kinase JAK2 (O60674 whole entry): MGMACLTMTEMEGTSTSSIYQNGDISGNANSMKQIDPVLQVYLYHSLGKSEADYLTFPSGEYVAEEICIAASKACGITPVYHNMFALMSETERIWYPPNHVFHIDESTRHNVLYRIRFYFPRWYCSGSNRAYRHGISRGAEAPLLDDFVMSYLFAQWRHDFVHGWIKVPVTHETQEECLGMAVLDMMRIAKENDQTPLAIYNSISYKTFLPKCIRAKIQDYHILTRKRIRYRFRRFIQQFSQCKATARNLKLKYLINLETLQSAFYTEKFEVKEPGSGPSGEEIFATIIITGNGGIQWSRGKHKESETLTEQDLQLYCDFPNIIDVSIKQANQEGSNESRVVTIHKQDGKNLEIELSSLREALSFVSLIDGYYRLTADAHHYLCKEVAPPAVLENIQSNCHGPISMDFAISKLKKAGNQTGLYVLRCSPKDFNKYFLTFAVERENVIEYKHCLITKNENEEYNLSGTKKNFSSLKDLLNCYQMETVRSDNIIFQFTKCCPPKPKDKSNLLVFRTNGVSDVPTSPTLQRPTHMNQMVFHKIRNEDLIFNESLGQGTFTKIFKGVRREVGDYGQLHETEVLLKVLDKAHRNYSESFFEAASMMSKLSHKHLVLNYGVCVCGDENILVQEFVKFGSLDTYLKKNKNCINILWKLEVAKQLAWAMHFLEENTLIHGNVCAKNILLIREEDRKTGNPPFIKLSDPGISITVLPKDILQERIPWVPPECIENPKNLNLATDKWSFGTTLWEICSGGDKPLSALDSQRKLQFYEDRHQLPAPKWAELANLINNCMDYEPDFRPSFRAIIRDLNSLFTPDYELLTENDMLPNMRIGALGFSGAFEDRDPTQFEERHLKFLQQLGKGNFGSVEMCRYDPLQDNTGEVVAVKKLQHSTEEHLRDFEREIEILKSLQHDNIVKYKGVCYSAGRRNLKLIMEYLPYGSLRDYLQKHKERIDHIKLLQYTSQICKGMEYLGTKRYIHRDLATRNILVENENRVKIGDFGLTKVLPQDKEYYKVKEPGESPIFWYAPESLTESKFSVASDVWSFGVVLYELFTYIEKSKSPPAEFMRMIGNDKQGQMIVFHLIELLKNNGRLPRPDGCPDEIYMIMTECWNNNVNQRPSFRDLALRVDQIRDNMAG

In the case of `COc1cc(Nc2nc3cccc(-c4cccc5[nH]cnc45)c3o2)cc(OC)c1OC`, the EC50 (MDA-MB-231) is reported as 0.58 µM, the IC50 [1] is reported as 0.46 µM and the IC50 (Aurora kinase A) is reported as 0.6 µM.
